From ChEMBL document CHEMBL1201862, “PubChem BioAssay data set” (2004)
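Where inhibition never reached the appropriate level, the endpoint shown equals the highest concentration tested. Otherwise, values were interpolated linearly from a five-concentration, 48-hour dose response in 96-well plates. GI50 is the concentration that inhibits growth by half.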 The source made the active and inactive calls. No stated cut-off is given here; in the data, active = GI50 up to about 1.1 µM and inactive = higher.

Legend:
Experiment in all cases: NCI-60 cell line screen, 48 h
A549 = system: A549
CCRF-CEM = system: CCRF-CEM
DMS-114 = system: DMS-114
EKVX = system: EKVX
HCC 2998 = system: HCC 2998
HCT-116 = system: HCT-116
HOP-92 = system: HOP-92
HT-29 = system: HT-29
MOLT-4 = system: MOLT-4
NCI-H23 = system: NCI-H23
NCI-H460 = system: NCI-H460
OVCAR-3 = system: OVCAR-3
OVCAR-5 = system: OVCAR-5
RPMI-8226 = system: RPMI-8226
RXF 393 = system: RXF 393
SF-539 = system: SF-539
SK-MEL-28 = system: SK-MEL-28
SNB-19 = system: SNB-19
U-251 = system: U-251
UO-31 = system: UO-31

Compound | GI50 (A549) | GI50 (CCRF-CEM) | GI50 (DMS-114) | GI50 (EKVX) | GI50 (HCC 2998) | GI50 (HCT-116) | GI50 (HOP-92) | GI50 (HT-29) | GI50 (MOLT-4) | GI50 (NCI-H23) | GI50 (NCI-H460) | GI50 (OVCAR-3) | GI50 (OVCAR-5) | GI50 (RPMI-8226) | GI50 (RXF 393) | GI50 (SF-539) | GI50 (SK-MEL-28) | GI50 (SNB-19) | GI50 (U-251) | GI50 (UO-31)
CC(C)(C)C(=O)OCC1C(=O)OCC1C(=O)N1Cc2cc3ccccc3nc2C1 (configuration not stated) | 15.2 µM (inactive) | 0.711 µM (active) | 4.81 µM (inactive) | 7.41 µM (inactive) | 15.5 µM (inactive) | 2.09 µM (inactive) | 1.5 µM (inactive) | 3.5 µM (inactive) | 1.06 µM (active) | 4.55 µM (inactive) | 3.93 µM (inactive) | 4.07 µM (inactive) | 10.5 µM (inactive) | 1.31 µM (inactive) | 1.5 µM (inactive) | 4.46 µM (inactive) | 3.21 µM (inactive) | 18.3 µM (inactive) | 9.2 µM (inactive) | 2.47 µM (inactive)
O=C1CCC(c2ccccc2)=NN1c1nsc2ccccc12 | > 100 µM (inactive) | 61.4 µM (inactive) | 62.7 µM (inactive) | 82.6 µM (inactive) | 60.8 µM (inactive) | 99.3 µM (inactive) | > 100 µM (inactive) | > 100 µM (inactive) | 60 µM (inactive) | > 100 µM (inactive) | 47.9 µM (inactive) | 83.8 µM (inactive) | > 100 µM (inactive) | 70.1 µM (inactive) | > 100 µM (inactive) | > 100 µM (inactive) | > 100 µM (inactive) | > 100 µM (inactive) | > 100 µM (inactive) | > 100 µM (inactive)
Clc1ccc(-c2nnc(-c3nsc4ccccc34)o2)cc1 | 40.6 µM (inactive) | – | 65.6 µM (inactive) | 14.2 µM (inactive) | 24.9 µM (inactive) | 18.2 µM (inactive) | 17.9 µM (inactive) | 25.9 µM (inactive) | – | 17.5 µM (inactive) | 23.3 µM (inactive) | 14 µM (inactive) | 58.7 µM (inactive) | 24.2 µM (inactive) | 38.3 µM (inactive) | 20 µM (inactive) | 33.3 µM (inactive) | 30.8 µM (inactive) | 15.2 µM (inactive) | 18.8 µM (inactive)
CC(=O)[C@H]1CCC2[C@@H]3CC=C4C(O)C(OS(=O)(=O)O)CC[C@]4(C)C3CC[C@@]21C (some centres not stated) | > 100 µM (inactive) | > 100 µM (inactive) | > 100 µM (inactive) | > 100 µM (inactive) | > 100 µM (inactive) | > 100 µM (inactive) | > 100 µM (inactive) | > 100 µM (inactive) | > 100 µM (inactive) | > 100 µM (inactive) | > 100 µM (inactive) | > 100 µM (inactive) | > 100 µM (inactive) | > 100 µM (inactive) | > 100 µM (inactive) | > 100 µM (inactive) | > 100 µM (inactive) | > 100 µM (inactive) | > 100 µM (inactive) | > 100 µM (inactive)
NC1CCCCC1 | 194 µM (inactive) | 260 µM (inactive) | > 56.2 µM (inactive) | 489 µM (inactive) | 310 µM (inactive) | 193 µM (inactive) | 258 µM (inactive) | 199 µM (inactive) | 195 µM (inactive) | > 562 µM (inactive) | 216 µM (inactive) | 190 µM (inactive) | 386 µM (inactive) | 369 µM (inactive) | 347 µM (inactive) | 164 µM (inactive) | 318 µM (inactive) | 187 µM (inactive) | 313 µM (inactive) | –
COc1cc2ccc(CC(N)=O)cc2cc1OC | > 100 µM (inactive) | > 100 µM (inactive) | > 100 µM (inactive) | > 100 µM (inactive) | – | > 100 µM (inactive) | > 100 µM (inactive) | > 100 µM (inactive) | > 100 µM (inactive) | > 100 µM (inactive) | – | > 100 µM (inactive) | > 100 µM (inactive) | > 100 µM (inactive) | > 100 µM (inactive) | > 100 µM (inactive) | > 100 µM (inactive) | > 100 µM (inactive) | > 100 µM (inactive) | > 100 µM (inactive)
O=C1CN2C(Cl)(Cl)C2(c2ccccc2)c2cc(Cl)ccc2N1CC1CC1 (configuration not stated) | – | 27.2 µM (inactive) | 36.2 µM (inactive) | 31.8 µM (inactive) | 18.7 µM (inactive) | 18.3 µM (inactive) | 12.3 µM (inactive) | 17.3 µM (inactive) | 24 µM (inactive) | 25.2 µM (inactive) | 16.3 µM (inactive) | 19.6 µM (inactive) | 37.4 µM (inactive) | 37.2 µM (inactive) | 18.7 µM (inactive) | – | 17.3 µM (inactive) | – | 19.1 µM (inactive) | 26 µM (inactive)
NC(Cc1c[nH]c2ccccc12)C(=O)O (stereo not drawn) [DL-TRYPTOPHAN] | > 300 µM (inactive) | > 300 µM (inactive) | > 300 µM (inactive) | > 300 µM (inactive) | > 300 µM (inactive) | > 300 µM (inactive) | > 300 µM (inactive) | > 300 µM (inactive) | > 300 µM (inactive) | > 300 µM (inactive) | > 300 µM (inactive) | > 300 µM (inactive) | > 300 µM (inactive) | > 300 µM (inactive) | > 300 µM (inactive) | > 300 µM (inactive) | > 300 µM (inactive) | > 300 µM (inactive) | > 300 µM (inactive) | > 300 µM (inactive)
CC1[C@@H]2CC=C3C4CCC5Cc6nc7c(nc6C[C@@]5(C)C4CC(=O)[C@]32CO[C@@]1(O)C(O)CC(C)(C)O)CC1CCC2C3=C[C@H]4O[C@@]5(O[C@@](C)(CO)C[C@@H]5O)C(C)[C@@]4(O)[C@]3(C)[C@@H](O)CC2[C@]1(C)C7 (some centres not stated) | 0.0031 µM (active) | 0.000753 µM (active) | 0.000513 µM (active) | 0.000386 µM (active) | 0.0243 µM (active) | 0.023 µM (active) | 0.0041 µM (active) | 0.00459 µM (active) | 0.00157 µM (active) | 0.00308 µM (active) | 0.00151 µM (active) | 0.491 µM (active) | 0.00773 µM (active) | < 0.00036 µM (active) | < 0.00036 µM (active) | 0.00201 µM (active) | – | 0.0366 µM (active) | < 0.00036 µM (active) | 0.0259 µM (active)
Cc1cc2c(ccc[n+]2[O-])[n+]([O-])c1 | > 100 µM (inactive) | > 100 µM (inactive) | > 100 µM (inactive) | > 100 µM (inactive) | > 100 µM (inactive) | > 100 µM (inactive) | > 100 µM (inactive) | > 100 µM (inactive) | > 100 µM (inactive) | > 100 µM (inactive) | > 100 µM (inactive) | > 100 µM (inactive) | > 100 µM (inactive) | > 100 µM (inactive) | 4.74 µM (inactive) | > 100 µM (inactive) | > 100 µM (inactive) | > 100 µM (inactive) | > 100 µM (inactive) | > 100 µM (inactive)
COc1ccc(C2N(NC(=O)c3ccncc3)C(=O)CS2(=O)=O)cc1F (configuration not stated) | > 100 µM (inactive) | > 100 µM (inactive) | > 100 µM (inactive) | – | > 100 µM (inactive) | > 100 µM (inactive) | > 100 µM (inactive) | > 100 µM (inactive) | 14 µM (inactive) | > 100 µM (inactive) | > 100 µM (inactive) | – | > 100 µM (inactive) | > 100 µM (inactive) | > 100 µM (inactive) | – | > 100 µM (inactive) | > 100 µM (inactive) | > 100 µM (inactive) | –
